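Briefly, cells in 96-well plates were exposed to five compound concentrations for 48 h, and endpoints were estimated by linear interpolation. Definition used: TGI = concentration required for complete inhibition of growth.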
Tests used:
Assay in all cases: DTP human tumour cell line panel, 48 h
786-0 renal = tested on: 786-0 renal
A498 renal = tested on: A498 renal
A549 NSCLC = tested on: A549 NSCLC
ACHN renal = tested on: ACHN renal
BT-549 breast = tested on: BT-549 breast
CAKI-1 renal = tested on: CAKI-1 renal
CCRF-CEM leukemia = tested on: CCRF-CEM leukemia
COLO 205 colon = tested on: COLO 205 colon
DLD-1 colon = tested on: DLD-1 colon
DMS 114 small cell lung = tested on: DMS 114 small cell lung
DMS 273 small cell lung = tested on: DMS 273 small cell lung
DU-145 prostate = tested on: DU-145 prostate
EKVX NSCLC = tested on: EKVX NSCLC
HCC-2998 colon = tested on: HCC-2998 colon
HCT-116 colon = tested on: HCT-116 colon
HCT-15 colon = tested on: HCT-15 colon
HL-60(TB) leukemia = tested on: HL-60(TB) leukemia
HOP-18 NSCLC = tested on: HOP-18 NSCLC
HOP-62 NSCLC = tested on: HOP-62 NSCLC
HOP-92 NSCLC = tested on: HOP-92 NSCLC
HS 578T breast = tested on: HS 578T breast
HT29 colon = tested on: HT29 colon
IGROV1 ovarian = tested on: IGROV1 ovarian
K-562 leukemia = tested on: K-562 leukemia
KM12 colon = tested on: KM12 colon
KM20L2 colon = tested on: KM20L2 colon
LOX IMVI melanoma = tested on: LOX IMVI melanoma
LXFL 529 NSCLC = tested on: LXFL 529 NSCLC
M14 melanoma = tested on: M14 melanoma
M19-MEL melanoma = tested on: M19-MEL melanoma
MALME-3M melanoma = tested on: MALME-3M melanoma
MCF7 breast = tested on: MCF7 breast
MDA-MB-231 breast = tested on: MDA-MB-231 breast
MDA-MB-435 = tested on: MDA-MB-435
MDA-N = tested on: MDA-N
MOLT-4 leukemia = tested on: MOLT-4 leukemia
NCI-H226 lung = tested on: NCI-H226 lung
NCI-H23 lung = tested on: NCI-H23 lung
NCI-H460 lung = tested on: NCI-H460 lung
NCI-H522 lung = tested on: NCI-H522 lung
OVCAR-3 ovarian = tested on: OVCAR-3 ovarian
OVCAR-4 ovarian = tested on: OVCAR-4 ovarian
OVCAR-5 ovarian = tested on: OVCAR-5 ovarian
OVCAR-8 ovarian = tested on: OVCAR-8 ovarian
PC-3 prostate = tested on: PC-3 prostate
RPMI-8226 leukemia = tested on: RPMI-8226 leukemia
RXF 393 renal = tested on: RXF 393 renal
RXF-631 renal = tested on: RXF-631 renal
SF-268 CNS = tested on: SF-268 CNS
SF-295 CNS = tested on: SF-295 CNS
SF-539 CNS = tested on: SF-539 CNS
SK-MEL-2 melanoma = tested on: SK-MEL-2 melanoma
SK-MEL-28 melanoma = tested on: SK-MEL-28 melanoma
SK-MEL-5 melanoma = tested on: SK-MEL-5 melanoma
SK-OV-3 ovarian = tested on: SK-OV-3 ovarian
SN12C renal = tested on: SN12C renal
SNB-19 CNS = tested on: SNB-19 CNS
SNB-75 CNS = tested on: SNB-75 CNS
SNB-78 CNS = tested on: SNB-78 CNS
SR leukemia = tested on: SR leukemia
SW-620 colon = tested on: SW-620 colon
T-47D breast = tested on: T-47D breast
TK-10 renal = tested on: TK-10 renal
U251 CNS = tested on: U251 CNS
UACC-257 melanoma = tested on: UACC-257 melanoma
UACC-62 melanoma = tested on: UACC-62 melanoma
UO-31 renal = tested on: UO-31 renal
XF 498 CNS = tested on: XF 498 CNS

## CCc1cccc(CC)c1NC(=O)C(C#N)C1=C(Cl)C(=O)c2ccccc2C1=O (configuration not stated)
786-0 renal
  TGI: 31 µM
A498 renal
  TGI: 36.5 µM
A549 NSCLC
  TGI: 40.9 µM
ACHN renal
  TGI: 30.5 µM
BT-549 breast
  TGI: 24.8 µM
CAKI-1 renal
  TGI: 24.7 µM
CCRF-CEM leukemia
  TGI: 15.6 µM
COLO 205 colon
  TGI: 49.1 µM
DLD-1 colon
  TGI: 45.2 µM
DMS 114 small cell lung
  TGI: 65.4 µM
DMS 273 small cell lung
  TGI: 45.3 µM
DU-145 prostate
  TGI: 30.5 µM
EKVX NSCLC
  TGI: 36 µM
HCC-2998 colon
  TGI: 31.2 µM
HCT-116 colon
  TGI: 34 µM
HCT-15 colon
  TGI: 42.9 µM
HL-60(TB) leukemia
  TGI: 5.28 µM
HOP-18 NSCLC
  TGI: 28.9 µM
HOP-62 NSCLC
  TGI: 21.4 µM
HOP-92 NSCLC
  TGI: 8.89 µM
HS 578T breast
  TGI: 9.32 µM
HT29 colon
  TGI: 39.7 µM
IGROV1 ovarian
  TGI: 32 µM
K-562 leukemia
  TGI: 14.1 µM
KM12 colon
  TGI: 35.5 µM
KM20L2 colon
  TGI: 43.8 µM
LOX IMVI melanoma
  TGI: 45.1 µM
LXFL 529 NSCLC
  TGI: 30.1 µM
M14 melanoma
  TGI: 35.1 µM
M19-MEL melanoma
  TGI: 47.2 µM
MALME-3M melanoma
  TGI: 21 µM
MCF7 breast
  TGI: 34.5 µM
MDA-MB-231 breast
  TGI: 21.6 µM
MDA-MB-435
  TGI: 27.9 µM
MDA-N
  TGI: 30.3 µM
MOLT-4 leukemia
  TGI: 20.3 µM
NCI-H226 lung
  TGI: 29.8 µM
NCI-H23 lung
  TGI: 24.3 µM
NCI-H460 lung
  TGI: 52 µM
NCI-H522 lung
  TGI: 23 µM
OVCAR-3 ovarian
  TGI: 36.9 µM
OVCAR-4 ovarian
  TGI: 31.6 µM
OVCAR-5 ovarian
  TGI: 34.5 µM
OVCAR-8 ovarian
  TGI: 57.1 µM
PC-3 prostate
  TGI: 25.9 µM
RPMI-8226 leukemia
  TGI: 23.4 µM
RXF 393 renal
  TGI: 29.8 µM
RXF-631 renal
  TGI: > 56.8 µM
SF-268 CNS
  TGI: 36 µM
SF-295 CNS
  TGI: 29.9 µM
SF-539 CNS
  TGI: 25.6 µM
SK-MEL-2 melanoma
  TGI: 34.7 µM
SK-MEL-28 melanoma
  TGI: 41 µM
SK-MEL-5 melanoma
  TGI: 28.2 µM
SK-OV-3 ovarian
  TGI: 42.4 µM
SN12C renal
  TGI: 31.3 µM
SNB-19 CNS
  TGI: 44.4 µM
SNB-75 CNS
  TGI: 17.4 µM
SNB-78 CNS
  TGI: 40.8 µM
SR leukemia
  TGI: > 28.9 µM
SW-620 colon
  TGI: 31.2 µM
T-47D breast
  TGI: 18.1 µM
TK-10 renal
  TGI: 35.9 µM
U251 CNS
  TGI: 33.7 µM
UACC-257 melanoma
  TGI: 32.2 µM
UACC-62 melanoma
  TGI: 31.7 µM
UO-31 renal
  TGI: 24.3 µM
XF 498 CNS
  TGI: 29.4 µM

## NCCc1ccc2oc3cc(=O)c4ccccc4c-3nc2c1
786-0 renal
  TGI: 4.89 µM
A498 renal
  TGI: 26.3 µM
A549 NSCLC
  TGI: 2.18 µM
ACHN renal
  TGI: 12 µM
CAKI-1 renal
  TGI: 24 µM
CCRF-CEM leukemia
  TGI: 4.49 µM
COLO 205 colon
  TGI: 1.81 µM
DLD-1 colon
  TGI: 9.34 µM
DMS 114 small cell lung
  TGI: 2.85 µM
DMS 273 small cell lung
  TGI: 3.11 µM
EKVX NSCLC
  TGI: 25.1 µM
HCC-2998 colon
  TGI: 6.78 µM
HCT-116 colon
  TGI: 2.87 µM
HCT-15 colon
  TGI: 5.01 µM
HL-60(TB) leukemia
  TGI: 3.42 µM
HOP-18 NSCLC
  TGI: 4.67 µM
HOP-62 NSCLC
  TGI: 10.3 µM
HOP-92 NSCLC
  TGI: 21.6 µM
HT29 colon
  TGI: 4.35 µM
IGROV1 ovarian
  TGI: 15.5 µM
K-562 leukemia
  TGI: 6.95 µM
KM12 colon
  TGI: 8.35 µM
KM20L2 colon
  TGI: 9.12 µM
LOX IMVI melanoma
  TGI: 4.42 µM
LXFL 529 NSCLC
  TGI: 13.4 µM
M14 melanoma
  TGI: 4.18 µM
M19-MEL melanoma
  TGI: 0.894 µM
MALME-3M melanoma
  TGI: 4.37 µM
MOLT-4 leukemia
  TGI: 5.52 µM
NCI-H226 lung
  TGI: 17.5 µM
NCI-H23 lung
  TGI: 2.39 µM
NCI-H460 lung
  TGI: 2.76 µM
NCI-H522 lung
  TGI: 7.66 µM
OVCAR-3 ovarian
  TGI: 8.12 µM
OVCAR-4 ovarian
  TGI: 15.8 µM
OVCAR-5 ovarian
  TGI: 15.4 µM
OVCAR-8 ovarian
  TGI: 10.6 µM
RPMI-8226 leukemia
  TGI: 23.2 µM
RXF 393 renal
  TGI: 9.94 µM
RXF-631 renal
  TGI: 8.88 µM
SF-268 CNS
  TGI: 15.4 µM
SF-295 CNS
  TGI: 9.48 µM
SF-539 CNS
  TGI: 6.35 µM
SK-MEL-2 melanoma
  TGI: 5.16 µM
SK-MEL-28 melanoma
  TGI: 10.7 µM
SK-MEL-5 melanoma
  TGI: 2.13 µM
SK-OV-3 ovarian
  TGI: 24.4 µM
SN12C renal
  TGI: 7.22 µM
SNB-19 CNS
  TGI: 11 µM
SNB-75 CNS
  TGI: 6.06 µM
SNB-78 CNS
  TGI: 23.3 µM
SR leukemia
  TGI: 4.67 µM
SW-620 colon
  TGI: 5.95 µM
TK-10 renal
  TGI: 27.3 µM
U251 CNS
  TGI: 10.6 µM
UACC-257 melanoma
  TGI: 7.4 µM
UACC-62 melanoma
  TGI: 8.58 µM
UO-31 renal
  TGI: 9.37 µM
XF 498 CNS
  TGI: 7.01 µM

Reference: PubChem BioAssay (NCI)
